Assay [1] has as its system VgEcR/RXR. As to the kind of experiment: Original VgEcR/RXR luciferase reporter co-transfection assay in HEK293 cells. Format: cell-based, human. The note with it: ligand alone at 1 µM or 10 µM, HEK293, 20 h.
The target in assay [2] is T1, VgGR/RXR (Homo sapiens, UniProt P04150+P19793, F602S).
T1 sequence (P04150 523-777 F602S limits assumed): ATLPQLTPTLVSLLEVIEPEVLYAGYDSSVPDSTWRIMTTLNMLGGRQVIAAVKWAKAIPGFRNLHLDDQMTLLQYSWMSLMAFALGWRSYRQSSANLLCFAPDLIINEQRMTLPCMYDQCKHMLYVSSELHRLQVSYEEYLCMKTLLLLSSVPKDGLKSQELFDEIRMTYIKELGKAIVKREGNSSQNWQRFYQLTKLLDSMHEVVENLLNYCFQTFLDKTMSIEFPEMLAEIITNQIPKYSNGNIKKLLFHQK
T1 sequence (P19793 1-462): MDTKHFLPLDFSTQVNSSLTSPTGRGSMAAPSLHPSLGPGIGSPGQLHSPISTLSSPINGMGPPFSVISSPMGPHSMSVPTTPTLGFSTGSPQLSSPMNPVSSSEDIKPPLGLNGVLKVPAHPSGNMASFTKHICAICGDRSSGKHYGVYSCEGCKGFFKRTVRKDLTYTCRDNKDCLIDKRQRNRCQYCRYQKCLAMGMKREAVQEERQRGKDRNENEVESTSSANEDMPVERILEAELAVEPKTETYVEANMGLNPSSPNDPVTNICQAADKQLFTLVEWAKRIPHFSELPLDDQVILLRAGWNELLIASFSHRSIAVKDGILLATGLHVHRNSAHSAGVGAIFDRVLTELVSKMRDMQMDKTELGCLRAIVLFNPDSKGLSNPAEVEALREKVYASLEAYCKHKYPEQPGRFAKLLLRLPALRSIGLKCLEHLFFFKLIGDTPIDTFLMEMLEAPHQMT
Briefly: VgGR/RXR luciferase reporter co-transfection assay in HEK293 cells. In kind it is cell-based. (In general: In a reporter assay the amount or activity of a reporter protein is the signal.)

For the molecule `C[C@@H]1C[C@H]2[C@@H]3CCC4=CC(=O)C=C[C@]4(C)[C@@]3(F)[C@@H](O)C[C@]2(C)[C@@]1(O)C(=O)CO` [DEX, dexamethasone], the “Response of original VgEcR/RXR reporter expression to ligand” value in assay [1] is “did not respond”. In addition, in assay [2], the “Maximal activation of reporter expression by ligand alone” value is “around one order of magnitude”.
As to `C[C@]12C=CC(=O)C=C1CC[C@@H]1[C@@H]2[C@@H](O)C[C@@]2(C)[C@H]1CC[C@]2(O)C(=O)CO` [PRED, prednisolone], in assay [1], the “Response of original VgEcR/RXR reporter expression to ligand” value was “did not respond”.
As to `CC(C)CC[C@@H](O)[C@](C)(O)[C@H]1CC[C@@]2(O)C3=CC(=O)[C@@H]4C[C@@H](O)[C@@H](O)C[C@]4(C)[C@H]3CC[C@]12C` [PonA, ponasterone A], in assay [2] (ligand alone, HEK293, 20 h), the “Response of VgGR/RXR reporter expression to ligand” value was “did not respond”.
Regarding `CC#C[C@]1(O)CC[C@H]2[C@@H]3CCC4=CC(=O)CCC4=C3[C@@H](c3ccc(N(C)C)cc3)C[C@@]21C` [RU-486, mifepristone], in assay [2], the “Effect of increasing antagonist concentration on DEX-activated output” value is listed as “reduction of output levels” and the “Effect on reporter expression in the absence of DEX” value was “increase in reporter expression”.
